This passage reports EC50 results from patent publication US8697641B2, “4-amino-4-oxobutanoyl peptide cyclic analogues, inhibitors of viral replication” (Achillion Pharmaceuticals, Inc., priority 2008, dated 2014).

The test system of this assay is Hepatitis C replicon. In words: HCV replicon assay (NPT ELISA readout) in Huh-7 replicon-containing cells. It counts as cell-based, Hepatitis C virus. The conditions noted are these: Hepatitis C virus, 72 h; HCV replicon in Huh-7 cells, three days incubation. An outline of the steps: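 Huh-7 cells carrying a neo-containing HCV subgenomic replicon (NS3-NS5B) were plated overnight, then exposed to compound (generally 6 concentrations, 10 to 0.03 μM) for three days at 37 °C. Replication was read as NPT level by captured ELISA; interferon alpha served as positive control.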
A general note: Replicon systems follow genome replication, usually without infectious particles.

Molecules are shown by their SMILES. Some results are limits rather than exact numbers.

Regarding `COc1ccc2c(O[C@@H]3C[C@H]4C(=O)N[C@]5(C(=O)NS(=O)(=O)C6CC6)C[C@H]5/C=C\CCCCC[C@H](CC(=O)OC(C)(C)C)C(=O)N4C3)cc(-c3ccccn3)nc2c1Cl` [Compound 88, tert-butyl 2-((2R,6R,14aR, 16aS,Z)-2-(8-chloro-7-methoxy-2-(pyridin-2-yl)quinolin-4-yloxy)-14a-(cyclopropylsulfonyl-carbamoyl)-5,16-dioxo-1,2,3,5,6,7,8,9,10,11, 13a,14,14a,15,16,16a-hexadecahydrocyclopropa [e]pyrrolo[1,2-a][1,4]diazacyclopentadecin-6-yl)acetate], the EC50 – broadly, the concentration at which the effect is half-maximal – is less than 1 µM.
`COc1ccc2c(O[C@@H]3C[C@H]4C(=O)N[C@]5(C(=O)NS(=O)(=O)C6CC6)C[C@H]5/C=C\CCCCC[C@H](CC(=O)O)C(=O)N4C3)cc(-c3ccccn3)nc2c1Cl` [Compound 89, 2-((2R,6R,14aR, 16aS,Z)-2-(8-chloro-7-methoxy-2-(pyridin-2-yl)quinolin-4-yloxy)-14a-(cyclopropylsulfonyl-carbamoyl)-5,16-dioxo-1,2,3,5,6,7,8,9,10,11, 13a,14,14a,15,16,16a-hexadecahydrocyclopropa [e]pyrrolo[1,2-a][1,4]diazacyclopentadecin-6-yl)acetic acid] displayed an EC50 of less than 1 µM.
As to `COc1ccc2c(O[C@@H]3C[C@H]4C(=O)N[C@]5(C(=O)NS(=O)(=O)C6CC6)C[C@H]5/C=C\CCCCC[C@H](CC(=O)N5CCCCC5)C(=O)N4C3)cc(-c3ccccn3)nc2c1Cl` [Compound 90, (2R,6R,14aR,16aS,Z)-2-(8-chloro-7-methoxy-2-(pyridin-2-yl)quinolin-4-yloxy)-N-(cyclopropylsulfonyl)-5, 16-dioxo-6-(2-oxo-2-(piperidin-1-yl)ethyl)-1,2,3,5,6,7,8,9,10,11, 13a,14,14a,15,16,16a-hexadecahydrocyclopropa [e]pyrrolo[1,2-a][1,4] diazacyclopentadecine-14a-carboxamide], the EC50 is less than 1 µM.
To `COc1ccc2c(O[C@@H]3C[C@H]4C(=O)N[C@]5(C(=O)NS(=O)(=O)C6CC6)C[C@H]5/C=C\CCCCC[C@H](CC(=O)N5CCCC(F)(F)C5)C(=O)N4C3)cc(-c3ccccn3)nc2c1Cl` [Compound 91, (2R,6R,14aR,16aS,Z)-2-(8-chloro-7-methoxy-2-(pyridin-2-yl)quinolin-4-yloxy)-N-(cyclopropylsulfonyl)-6-(2-(3,3-difluoropiperidin-1-yl)-2-oxoethyl)-5,16-dioxo-1,2,3,5,6,7,8,9,10,11, 13a,14,14a,15,16,16a-hexadecahydrocyclopropa [e]pyrrolo[1,2-a][1,4] diazacyclopentadecine-14a-carboxamide] belongs less than 1 µM; to `COc1ccc2c(O[C@@H]3C[C@H]4C(=O)N[C@]5(C(=O)NS(=O)(=O)C6CC6)C[C@H]5/C=C\CCCCC[C@H](CC(=O)N5CCC(C(F)(F)F)CC5)C(=O)N4C3)cc(-c3ccccn3)nc2c1Cl` [Compound 92, (2R,6R,14aR,16aS,Z)-2-(8-chloro-7-methoxy-2-(pyridin-2-yl)quinolin-4-yloxy)-N-(cyclopropylsulfonyl)-5,16-dioxo-6-(2-oxo-2-(4-(trifluoromethyl)piperidin-1-yl)ethyl)-1,2,3,5,6,7,8,9,10,11, 13a,14,14a,15,16,16a-hexadecahydrocyclopropa [e]pyrrolo[1,2-a][1,4] diazacyclopentadecine-14a-carboxamide], less than 1 µM; to `COc1ccc2c(O[C@@H]3C[C@H]4C(=O)N[C@]5(C(=O)NS(=O)(=O)C6CC6)C[C@H]5/C=C\CCCCC[C@H](CC(=O)N5CCC(F)(F)CC5)C(=O)N4C3)cc(-c3ccccn3)nc2c1Cl` [Compound 93, (2R,6R,14aR,16aS,Z)-2-(8-chloro-7-methoxy-2-(pyridin-2-yl)quinolin-4-yloxy)-N-(cyclopropylsulfonyl)-6-(2-(4,4-difluoropiperidin-1-yl)-2-oxoethyl)-5,16-dioxo-1,2,3,5,6,7,8,9,10,11, 13a,14,14a,15,16,16a-hexadecahydrocyclopropa [e]pyrrolo[1,2-a][1,4] diazacyclopentadecine-14a-carboxamide], less than 1 µM.
To `COc1ccc2c(O[C@@H]3C[C@H]4C(=O)N[C@]5(C(=O)NS(=O)(=O)C6CC6)C[C@H]5/C=C\CCCCC[C@H](CC(=O)N5CCC(F)(F)C5)C(=O)N4C3)cc(-c3ccccn3)nc2c1Cl` [Compound 94, (2R,6R,14aR,16aS,Z)-2-(8-chloro-7-methoxy-2-(pyridin-2-yl)quinolin-4-yloxy)-N-(cyclopropylsulfonyl)-6-(2-(3,3-difluoropyrrolidin-1-yl)-2-oxoethyl)-5,16-dioxo-1,2,3,5,6,7,8,9,10,11, 13a,14,14a,15,16,16a-hexadecahydrocyclopropa [e]pyrrolo[1,2-a][1,4] diazacyclopentadecine-14a-carboxamide] belongs less than 1 µM; to `COc1ccc2c(O[C@@H]3C[C@H]4C(=O)N[C@]5(C(=O)NS(=O)(=O)C6CC6)C[C@H]5/C=C\CCCCC[C@H](CC(=O)N5CCCC5C(F)(F)F)C(=O)N4C3)cc(-c3ccccn3)nc2c1Cl` (stereo partly drawn) [Compound 95, (2R,6R,14aR,16aS,Z)-2-(8-chloro-7-methoxy-2-(pyridin-2-yl)quinolin-4-yloxy)-N-(cyclopropylsulfonyl)-5,16-dioxo-6-(2-oxo-2-(2-(trifluoromethyl)pyrrolidin-1-yl)ethyl)-1,2,3,5,6,7,8,9,10,11, 13a,14,14a,15,16,16a-hexadecahydrocyclopropa [e]pyrrolo[1,2-a][1,4] diazacyclopentadecine-14a-carboxamide], less than 1 µM; to `COc1ccc2nc(-c3ccccn3)cc(C(=O)N[C@@H]3C[C@H]4C(=O)N[C@]5(C(=O)NS(=O)(=O)C6CC6)C[C@H]5/C=C\CCCCC[C@H](CC(=O)N5CCCCC5)C(=O)N4C3)c2c1` [Compound 96, (2R,6R,14aR,16aS,Z)-N-(cyclopropylsulfonyl)-2-(6-methoxy-2-(pyridin-2-yl)quinoline-4-carboxamido)-5,16-dioxo-6-(2-oxo-2-(piperidin-1-yl)ethyl)-1,2,3,5,6,7,8,9,10,11, 13a,14,14a,15,16,16a-hexadecahydrocyclopropa [e]pyrrolo[1,2-a][1,4] diazacyclopentadecine-14a-carboxamide], less than 1 µM.
To `COc1ccc2nc(-c3ccccn3)cc(C(=O)N[C@@H]3C[C@H]4C(=O)N[C@]5(C(=O)NS(=O)(=O)C6CC6)C[C@H]5/C=C\CCCCC[C@H](CC(=O)N5CCC(F)(F)CC5)C(=O)N4C3)c2c1` [Compound 97, (2R,6R,14aR,16aS,Z)-N-(cyclopropylsulfonyl)-6-(2-(4,4-difluoropiperidin-1-yl)-2-oxoethyl)-2-(6-methoxy-2-(pyridin-2-yl)quinoline-4-carboxamido)-5,16-dioxo-1,2,3,5,6,7,8,9,10,11, 13a,14,14a,15,16,16a-hexadecahydrocyclopropa [e]pyrrolo[1,2-a][1,4] diazacyclopentadecine-14a-carboxamide] belongs less than 1 µM; to `COc1ccc2nc(-c3ccccn3)cc(C(=O)N[C@@H]3C[C@H]4C(=O)N[C@]5(C(=O)NS(=O)(=O)C6CC6)C[C@H]5/C=C\CCCCC[C@H](CC(=O)N5CCC(F)(F)C5)C(=O)N4C3)c2c1` [Compound 98, (2R,6R,14aR,16aS,Z)-N-(cyclopropylsulfonyl)-6-(2-(3,3-difluoropyrrolidin-1-yl)-2-oxoethyl)-2-(6-methoxy-2-(pyridin-2-yl)quinoline-4-carboxamido)-5,16-dioxo-1,2,3,5,6,7,8,9,10,11, 13a,14,14a,15,16,16a-hexadecahydrocyclopropa [e]pyrrolo[1,2-a][1,4] diazacyclopentadecine-14a-carboxamide], less than 1 µM.
In turn, `COc1ccc2c(O[C@@H]3C[C@H]4C(=O)N[C@]5(C(=O)NS(=O)(=O)C6CC6)C[C@H]5/C=C\CCCCC[C@H](CC(=O)N5[C@H](C)CCC[C@@H]5C)C(=O)N4C3)cc(-c3ccccc3)nc2c1` [Compound 99, (2R,6R,14aR,16aS,Z)-N-(cyclopropylsulfonyl)-6-(2-((2R,6S)-2,6-dimethylpiperidin-1-yl)-2-oxoethyl)-2-(7-methoxy-2-phenylquinolin-4-yloxy)-5,16-dioxo-1,2,3,5,6,7,8,9,10,11, 13a,14,14a,15,16,16a-hexadecahydrocyclopropa [e]pyrrolo[1,2-a][1,4] diazacyclopentadecine-14a-carboxamide] showed an EC50 of less than 1 µM.
In the case of `COc1ccc2c(O[C@@H]3C[C@H]4C(=O)N[C@]5(C(=O)NS(=O)(=O)C6CC6)C[C@H]5/C=C\CCCCC[C@H](CC(=O)N5CCCC(F)C5)C(=O)N4C3)cc(-c3ccccn3)nc2c1Cl` (stereo partly drawn) [Compound 100, (2R,6R,14aR,16aS,Z)-2-(8-chloro-7-methoxy-2-(pyridin-2-yl)quinolin-4-yloxy)-N-(cyclopropylsulfonyl)-6-(2-(3-fluoropiperidin-1-yl)-2-oxoethyl)-5,16-dioxo-1,2,3,5,6,7,8,9,10,11, 13a,14,14a,15,16,16a-hexadecahydrocyclopropa [e]pyrrolo[1,2-a][1,4] diazacyclopentadecine-14a-carboxamide] it was less than 1 µM; in that of `COc1ccc2c(O[C@@H]3C[C@H]4C(=O)N[C@]5(C(=O)NS(=O)(=O)C6CC6)C[C@H]5/C=C\CCCCC[C@H](CC(=O)N5CCC(F)CC5)C(=O)N4C3)cc(-c3ccccn3)nc2c1Cl` [Compound 101, (2R,6R,14aR,16aS,Z)-2-(8-chloro-7-methoxy-2-(pyridin-2-yl)quinolin-4-yloxy)-N-(cyclopropylsulfonyl)-6-(2-(4-fluoropiperidin-1-yl)-2-oxoethyl)-5,16-dioxo-1,2,3,5,6,7,8,9,10,11, 13a,14,14a,15,16,16a-hexadecahydrocyclopropa [e]pyrrolo[1,2-a][1,4] diazacyclopentadecine-14a-carboxamide], less than 1 µM.
